# Legend:
# [1] = target: T1, K-Ras G12D (Homo sapiens, UniProt P01116, G12D); assay: PPI-HTRF assay, K-Ras G12D / SOS1 interaction; assay type: biochemical; details: HTRF, K-Ras G12D; read-out: PPI-HTRF-5 nM (K-Ras G12D IC50)
# T1 construct: made in house; host or cells: E. coli, e.g. BL21 (DE3)
# Summary of the method: (§1)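 HTRF readout: 665/620 nm ratio (ex 337 nm) after ≥10 min incubation. Donor anti-GST-Eu(K) sits on GST-K-Ras (WT, G12D, G12V or G12S) and acceptor anti-6His-XL665 on His-hSOS1. Buffer ~5 mM HEPES pH 7.4, ~150 mM NaCl, ~1 mM DTT, 0.05% BSA, 0.0025% Igepal. Duplicate 6-point dilution, 10–0.01 μM, fitted to IC50.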
# [2] = target: T2, K-Ras G12S (Homo sapiens, UniProt P01116, G12S); assay: PPI-HTRF assay, K-Ras G12S / SOS1 interaction; assay type: biochemical; details: read-out: PPI-HTRF-5 nM (K-Ras G12S IC50)
# T2 construct: made in house; host or cells: E. coli, e.g. BL21 (DE3)
# T2 sequence (P01116 1-188 isoform P01116-2 G12S): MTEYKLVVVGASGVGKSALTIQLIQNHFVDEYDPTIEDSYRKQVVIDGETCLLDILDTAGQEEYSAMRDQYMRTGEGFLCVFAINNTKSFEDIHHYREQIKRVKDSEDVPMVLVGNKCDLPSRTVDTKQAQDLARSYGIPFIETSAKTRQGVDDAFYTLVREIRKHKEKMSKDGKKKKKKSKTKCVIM
# Summary of the method: as §1
# [3] = target: T3, K-Ras G12V (Homo sapiens, UniProt P01116, G12V); assay: PPI-HTRF assay, K-Ras G12V / SOS1 interaction; assay type: biochemical; details: HTRF, K-Ras G12V; read-out: PPI-HTRF-5 nM (K-Ras G12V IC50)
# T3 construct: made in house; host or cells: E. coli, e.g. BL21 (DE3)
# T3 sequence (P01116 1-188 isoform P01116-2 G12V): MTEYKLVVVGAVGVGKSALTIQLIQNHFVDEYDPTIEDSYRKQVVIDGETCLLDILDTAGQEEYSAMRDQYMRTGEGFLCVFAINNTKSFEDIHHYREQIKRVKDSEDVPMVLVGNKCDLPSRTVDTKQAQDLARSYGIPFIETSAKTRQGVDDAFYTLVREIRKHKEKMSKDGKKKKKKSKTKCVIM
# Summary of the method: as §1
# [4] = target: T4, wildtype K-Ras (Homo sapiens, UniProt P01116); assay: PPI-HTRF assay, wildtype K-Ras / SOS1 interaction; assay type: biochemical; details: HTRF, K-Ras wt; read-out: PPI-HTRF-5 nM (K-Ras wt IC50)
# T4 construct: made in house; host or cells: E. coli, e.g. BL21 (DE3)
# T4 sequence (P01116 1-188 isoform P01116-2): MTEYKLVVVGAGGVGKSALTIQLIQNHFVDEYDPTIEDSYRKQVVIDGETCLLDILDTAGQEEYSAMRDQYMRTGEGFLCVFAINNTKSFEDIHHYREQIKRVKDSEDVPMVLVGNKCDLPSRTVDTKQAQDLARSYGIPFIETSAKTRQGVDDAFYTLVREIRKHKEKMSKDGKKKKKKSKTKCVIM
# Summary of the method: as §1
# [5] = system: GP2D cells; assay: Ras cellular assay, cell proliferation GP2D; assay type: cell-based
# Summary of the method: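 GP2D cells (G12D Ras mutant) seeded (e.g., 800/well) and treated the next day with a dilution series (e.g., 9-point, 3-fold). After approximately 5 days, viability measured by CellTiter-Glo luminescence; IC50 from four-parameter fit.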
# [6] = system: A549 cells; assay: Ras cellular assay, cell proliferation A549; assay type: cell-based; details: Homo sapiens
# Procedure: (§2) For example, this assay can be also used to assess selective growth inhibition of a mutant Ras protein relative to a wildtype, or relative to a different mutant Ras protein.
# A549 (ATCC CRL-185) and LS123 (ATCC CRL-255) cell lines comprise a G12S mutation and can be used to assess Ras cellular signaling in vitro, e.g., in response to treatment with a compound described herein. A549 culture medium is prepared with RPMI-1640 and 10% heat-inactivated FBS. LS123 culture medium is prepared with RPMI-1640 and 10% heat-inactivated FBS. A CellTiter-Glo (CTG) luminescent based assay (Promega) is used to assess growth of the cells, as a measurement of the ability of the compounds herein to inhibit Ras signaling in the cells. The cells (e.g., 800 per well) are seeded in their respective culture medium in standard tissue culture-treated 384-well format plates (Falcon #08-772-116) or ultra-low attachment surface 384-well format plates (S-Bio #MS-9384WZ). The day after plating, cells are treated with a dilution series (e.g., a 10 point, 3-fold dilution series) of the compounds herein (e.g., approximately 40 μL final volume per well). Cell viability can be monitored (e.g., approximately 6 days later) according to the manufacturer's recommended instructions, where CellTiter-Glo reagent is added (e.g., approximately 10 μL), vigorously mixed, covered, and placed on a plate shaker (e.g., approximately for 20 min) to ensure sufficient cell lysis prior to assessment of luminescent signal. The IC50 values are determined using the four parameter fit. The resulting IC50 value is a measurement of the ability of the test compound to reduce cell growth of Ras-driven cells (e.g., tumor cell lines) in vitro and/or in vivo.
# [7] = system: SW620 cells; assay: Ras cellular assay, cell proliferation SW620; assay type: cell-based; details: Homo sapiens, SW-620
# Source text: as §2
# T1 sequence (P01116 1-188 isoform P01116-2 G12D): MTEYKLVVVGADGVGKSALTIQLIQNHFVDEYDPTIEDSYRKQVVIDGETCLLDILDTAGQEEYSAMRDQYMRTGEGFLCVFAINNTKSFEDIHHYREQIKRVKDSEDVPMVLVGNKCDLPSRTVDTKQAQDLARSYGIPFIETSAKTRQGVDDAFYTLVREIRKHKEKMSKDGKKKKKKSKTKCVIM
IC50 [1] [µM],IC50 [2] [µM],IC50 [3] [µM],IC50 [4] [µM],IC50 [6] [µM],IC50 [7] [µM],Compound,IC50 [5] [µM]
< 5,< 5,< 5,< 5,< 5,< 5,"N#Cc1c(N)sc2c(F)ccc(-c3c(Cl)c4c5c(nc(OC[C@@]67CCCN6C[C@H](F)C7)nc5c3F)N3CCOCC3CO4)c12 (stereo partly drawn) [compound 116, 2-amino-4-(6-chloro-4-fluoro-2-(((2R,7aS)-2-fluorotetrahydro-1H-pyrrolizin-7a(5H)-yl)methoxy)-8a,9,11,12-tetrahydro-8H-[1,4]oxazino[3′,4′:3,4][1,4]oxazepino[5,6,7-de]quinazolin-5-yl)-7-fluorobenzo[b]thiophene-3-carbonitrile]",< 5
< 5,< 5,< 5,< 5,< 5,< 5,"N#Cc1c(N)sc2c(F)ccc(-c3c(Cl)c4c5c(nc(OC[C@@]67CCCN6C[C@H](F)C7)nc5c3F)N3CC[C@@H]3CCO4)c12 [compound 167, 2-amino-4-((12aR)-9-chloro-7-fluoro-5-(((2R,7aS)-2-fluorotetrahydro-1H-pyrrolizin-7a(5H)-yl)methoxy)-1,11,12,12a-tetrahydro-2H-azeto[11,2′:5,6][1,5]oxazocino[4,3,2-de]quinazolin-8-yl)-7-fluorobenzo[b]thiophene-3-carbonitrile]",< 5
< 5,< 5,< 5,< 5,< 5,< 5,"N#Cc1c(N)sc2c(F)ccc(-c3c(Cl)c4c5c(nc(OC[C@@]67CCCN6C[C@H](F)C7)nc5c3F)N3CCC3CO4)c12 (stereo partly drawn) [compound 178, 2-amino-4-(6-chloro-4-fluoro-2-(((2R,7aS)-2-fluorotetrahydro-1H-pyrrolizin-7a(5H)-yl)methoxy)-8,8a,9,10-tetrahydroazeto[2′,1′:3,4][1,4]oxazepino [5,6,7-de]quinazolin-5-yl)-7-fluorobenzo[b]thiophene-3-carbonitrile]",< 5
< 5,< 5,< 5,< 5,< 5,< 5,"N#Cc1c(N)sc2c(F)ccc(-c3c(Cl)c4c5c(nc(OC[C@@]67CCCN6C[C@H](F)C7)nc5c3F)N3CCN(C(=O)C(F)F)CCC3CO4)c12 (stereo partly drawn) [compound 149, 2-amino-4-(6-chloro-11-(2,2-difluoroacetyl)-4-fluoro-2-(((2R,7aS)-2-fluorotetrahydro-1H-pyrrolizin-7a(5H)-yl)methoxy)-8a,9,10,11,12,13-hexahydro-8H-[1,4]diazepino[7′,1′:3,4][1,4]oxazepino [5,6,7-de]quinazolin-5-yl)-7-fluorobenzo[b]thiophene-3-carbonitrile]",< 5

# Continued, compound first:
Compound,IC50 [1] [µM],IC50 [2] [µM],IC50 [3] [µM],IC50 [4] [µM],IC50 [6] [µM],IC50 [7] [µM],IC50 [5] [µM]
"CC(=O)N1CC2Oc3c(Cl)c(-c4ccc(F)c5sc(N)c(C#N)c45)c(F)c4nc(OC[C@@]56CCCN5C[C@H](F)C6)nc(c34)N(C)C2C1 (stereo partly drawn) [compound 172, 4-(9-acetyl-6-chloro-4-fluoro-2-(((2R,7aS)-2-fluorotetrahydro-1H-pyrrolizin-7a(5H)-yl)methoxy)-11-methyl-7a,8,9,10,10a,11-hexahydropyrrolo[3′,4′:2,3][1,4]oxazepino [5,6,7-de]quinazolin-5-yl)-2-amino-7-fluorobenzo[b]thiophene-3-carbonitrile]",< 5,< 5,< 5,< 5,> 5,> 5,> 5
"N#Cc1c(N)sc2c(F)ccc(-c3c(Cl)c4c5c(nc(OC[C@@]67CCCN6C[C@H](F)C7)nc5c3F)N3C(CCCC3C(F)F)CO4)c12 (stereo partly drawn) [compound 189, 2-amino-4-(6-chloro-12-(difluoromethyl)-4-fluoro-2-(((2R,7aS)-2-fluorotetrahydro-1H-pyrrolizin-7a(5H)-yl)methoxy)-8,8a,9,10,11,12-hexahydropyrido[2′,1′:3,4][1,4]oxazepino [5,6,7-de]quinazolin-5-yl)-7-fluorobenzo[b]thiophene-3-carbonitrile]",< 5,< 5,< 5,< 5,< 5,< 5,< 5
"COC1CCC2COc3c(Cl)c(-c4ccc(F)c5sc(N)c(C#N)c45)c(F)c4nc(OC[C@@]56CCCN5C[C@H](F)C6)nc(c34)N2C1 (stereo partly drawn) [compound 182, 2-amino-4-(6-chloro-4-fluoro-2-(((2R,7aS)-2-fluorotetrahydro-1H-pyrrolizin-7a(5H)-yl)methoxy)-11-methoxy-8,8a,9,10,11,12-hexahydropyrido[2′,1′:3,4][1,4]oxazepino [5,6,7-de]quinazolin-5-yl)-7-fluorobenzo[b]thiophene-3-carbonitrile]",< 5,< 5,< 5,< 5,< 5,< 5,< 5
"N#Cc1c(N)sc2c(F)ccc(-c3c(Cl)c4c5c(nc(OC[C@@]67CCCN6C[C@H](F)C7)nc5c3F)N(CC3CC3)C3COCC3CO4)c12 (stereo partly drawn) [compound 101, 2-amino-4-(6-chloro-12-(cyclopropylmethyl)-4-fluoro-2-(((2R,7aS)-2-fluorotetrahydro-1H-pyrrolizin-7a(5H)-yl)methoxy)-8a,9,11a,12-tetrahydro-8H,11H-furo[3′,4′:6,7][1,5]oxazocino[4,3,2-de]quinazolin-5-yl)-7-fluorobenzo[b]thiophene-3-carbonitrile]",< 5,< 5,< 5,< 5,< 5,< 5,< 5
"CN1c2nc(OC[C@@]34CCCN3C[C@H](F)C4)nc3c(F)c(-c4ccc(F)c5sc(N)c(C#N)c45)c(Cl)c(c23)OCC2CN(C(=O)[C@H]3CN3)CC21 (stereo partly drawn) [compound 124, 2-amino-4-(10-((R)-aziridine-2-carbonyl)-6-chloro-4-fluoro-2-(((2R,7aS)-2-fluorotetrahydro-1H-pyrrolizin-7a(5H)-yl)methoxy)-12-methyl-8a,9,10,11,11a,12-hexahydro-8H-pyrrolo[3′,4′:6,7][1,5]oxazocino[4,3,2-de]quinazolin-5-yl)-7-fluorobenzo[b]thiophene-3-carbonitrile]",< 5,< 5,< 5,< 5,> 5,< 5,< 5
"N#Cc1c(N)sc2c(F)ccc(-c3c(Cl)c4c5c(nc(OC[C@@]67CCCN6C[C@H](F)C7)nc5c3F)N3CCC(C#N)CC3CO4)c12 (stereo partly drawn) [compound 205, 5-(2-amino-3-cyano-7-fluorobenzo[b]thiophen-4-yl)-6-chloro-4-fluoro-2-(((2R,7aS)-2-fluorotetrahydro-1H-pyrrolizin-7a(5H)-yl)methoxy)-8,8a,9,10,11,12-hexahydropyrido[2′,1′:3,4][1,4]oxazepino [5,6,7-de]quinazoline-10-carbonitrile]",< 5,< 5,< 5,< 5,< 5,< 5,< 5
"N#Cc1c(N)sc2c(F)ccc(-c3c(Cl)c4c5c(nc(OC[C@@]67CCCN6C[C@H](F)C7)nc5c3F)N3CC5(CCCC3CCO4)CN(C(=O)C3CC3(F)F)C5)c12 (stereo partly drawn) [compound 127, 2-amino-4-(3-chloro-1′-(2,2-difluorocyclopropane-1-carbonyl)-1-fluoro-14-(((2R,7aS)-2-fluorotetrahydro-1H-pyrrolizin-7a(5H)-yl)methoxy)-5,6,6a,7,8,9-hexahydro-11H-spiro[azepino[1′,2′:5,6][1,5]oxazocino[4,3,2-de]quinazoline-10,3′-azetidin]-2-yl)-7-fluorobenzo[b]thiophene-3-carbonitrile]",< 5,< 5,< 5,< 5,> 5,< 5,< 5

# Source: patent US12059425B2, “Heterocyclic compounds and uses thereof” (Kumquat Biosciences Inc., priority 2022, dated 2024)
